The target of one assay is T1, LRRK2 WT (Homo sapiens, UniProt Q5S007).
T1 construct: purchased Life Technologies PR8604B
Description: LRRK2 Kinase Activity Assay (LanthaScreen TR-FRET), wild type. In kind it is biochemical. To be noted: recombinant wild type LRRK2, 25 μM ATP, 400 nM LRRKtide, 60 min; class symbols. The method in brief:
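Recombinant wild-type or G2019S LRRK2 incubated with fluorescein-labeled LRRKtide (ERM-based) peptide, ATP and serially diluted compound for 60 min at room temperature.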
A general note: In TR-FRET formats the signal depends on donor and acceptor labels being close together.

For the next assay, the target named is T2, LRRK2 G2019S (Homo sapiens, UniProt Q5S007, G2019S).
T2 construct: purchased Life Technologies PV4881
T2 sequence (Q5S007 whole entry G2019S): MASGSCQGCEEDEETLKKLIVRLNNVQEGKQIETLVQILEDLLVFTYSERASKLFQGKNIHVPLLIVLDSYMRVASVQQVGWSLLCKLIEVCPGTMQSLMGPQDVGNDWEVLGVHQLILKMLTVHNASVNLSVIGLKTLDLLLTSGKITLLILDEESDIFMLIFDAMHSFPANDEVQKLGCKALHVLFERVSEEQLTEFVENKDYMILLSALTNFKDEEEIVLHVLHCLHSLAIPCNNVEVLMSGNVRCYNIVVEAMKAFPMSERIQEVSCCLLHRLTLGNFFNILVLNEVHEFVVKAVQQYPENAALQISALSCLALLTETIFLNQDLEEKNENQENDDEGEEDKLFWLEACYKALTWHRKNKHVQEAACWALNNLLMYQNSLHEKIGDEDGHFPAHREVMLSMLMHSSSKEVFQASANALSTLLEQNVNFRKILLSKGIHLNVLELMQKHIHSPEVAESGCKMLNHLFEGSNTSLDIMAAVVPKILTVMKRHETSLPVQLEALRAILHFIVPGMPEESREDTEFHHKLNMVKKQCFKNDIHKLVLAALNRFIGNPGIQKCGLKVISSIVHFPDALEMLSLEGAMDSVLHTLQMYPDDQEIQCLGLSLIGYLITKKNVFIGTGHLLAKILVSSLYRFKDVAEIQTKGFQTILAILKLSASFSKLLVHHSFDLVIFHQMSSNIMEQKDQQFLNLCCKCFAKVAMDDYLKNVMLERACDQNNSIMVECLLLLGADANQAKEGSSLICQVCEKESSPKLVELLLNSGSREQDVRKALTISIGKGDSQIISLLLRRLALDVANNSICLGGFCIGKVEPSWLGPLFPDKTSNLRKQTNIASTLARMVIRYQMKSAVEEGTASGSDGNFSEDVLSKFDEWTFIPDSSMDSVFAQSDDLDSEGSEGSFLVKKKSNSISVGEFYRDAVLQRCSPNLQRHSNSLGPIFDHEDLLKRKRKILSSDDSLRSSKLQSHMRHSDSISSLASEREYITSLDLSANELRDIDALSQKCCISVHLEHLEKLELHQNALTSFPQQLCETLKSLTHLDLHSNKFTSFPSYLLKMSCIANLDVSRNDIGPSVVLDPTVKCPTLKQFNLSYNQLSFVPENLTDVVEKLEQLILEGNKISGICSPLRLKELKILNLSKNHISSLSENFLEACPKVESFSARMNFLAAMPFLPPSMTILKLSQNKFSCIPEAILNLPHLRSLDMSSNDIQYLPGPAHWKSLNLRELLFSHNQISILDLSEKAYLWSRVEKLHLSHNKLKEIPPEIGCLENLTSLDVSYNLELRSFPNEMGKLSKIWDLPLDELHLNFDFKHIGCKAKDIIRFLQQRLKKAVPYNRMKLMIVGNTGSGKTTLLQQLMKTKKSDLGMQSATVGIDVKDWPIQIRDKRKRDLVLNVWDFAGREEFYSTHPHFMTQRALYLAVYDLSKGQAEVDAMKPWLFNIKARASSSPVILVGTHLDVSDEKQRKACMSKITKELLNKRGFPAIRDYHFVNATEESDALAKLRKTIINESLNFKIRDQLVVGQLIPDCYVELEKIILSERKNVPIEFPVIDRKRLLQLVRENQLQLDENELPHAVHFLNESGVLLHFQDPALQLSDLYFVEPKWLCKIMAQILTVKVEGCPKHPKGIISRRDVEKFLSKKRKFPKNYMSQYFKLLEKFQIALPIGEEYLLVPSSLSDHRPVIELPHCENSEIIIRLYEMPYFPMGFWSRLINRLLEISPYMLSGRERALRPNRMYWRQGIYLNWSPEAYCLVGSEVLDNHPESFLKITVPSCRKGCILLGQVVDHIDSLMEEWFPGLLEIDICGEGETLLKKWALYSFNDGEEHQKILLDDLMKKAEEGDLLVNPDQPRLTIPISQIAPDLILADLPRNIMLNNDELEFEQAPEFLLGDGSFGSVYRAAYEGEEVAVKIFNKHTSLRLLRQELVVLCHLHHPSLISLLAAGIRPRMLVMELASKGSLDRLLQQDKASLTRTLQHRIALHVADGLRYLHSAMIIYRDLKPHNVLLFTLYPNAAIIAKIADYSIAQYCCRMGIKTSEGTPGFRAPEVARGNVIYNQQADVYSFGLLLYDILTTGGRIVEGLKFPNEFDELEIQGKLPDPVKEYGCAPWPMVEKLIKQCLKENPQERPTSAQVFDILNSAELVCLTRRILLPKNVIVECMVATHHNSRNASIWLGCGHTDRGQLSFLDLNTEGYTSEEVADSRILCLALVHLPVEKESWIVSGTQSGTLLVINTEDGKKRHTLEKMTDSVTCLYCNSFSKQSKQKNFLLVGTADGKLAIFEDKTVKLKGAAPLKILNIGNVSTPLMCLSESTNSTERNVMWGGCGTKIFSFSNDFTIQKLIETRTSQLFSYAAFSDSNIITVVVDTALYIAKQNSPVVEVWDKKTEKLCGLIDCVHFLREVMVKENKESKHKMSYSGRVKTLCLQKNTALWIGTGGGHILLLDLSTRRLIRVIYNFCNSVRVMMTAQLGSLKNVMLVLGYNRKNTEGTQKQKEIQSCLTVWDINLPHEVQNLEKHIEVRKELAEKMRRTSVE
Description: LRRK2 Kinase Activity Assay (LanthaScreen TR-FRET), G2019S. Format: biochemical. The conditions noted are these: recombinant G2019S-LRRK2, 25 μM ATP, 400 nM LRRKtide, 60 min; class symbols. As to the method: LRRK2 kinase activity was measured using a LanthaScreen™ Kinase Activity Assay from ThermoFisher Scientific. Recombinant wild type or G2019S-LRRK2 protein (Life Technologies, PR8604B or PV4881, respectively), was incubated with a fluorescein-labeled peptide substrate called LRRKtide that is based upon ezrin/radixin/moesin (ERM) (Life Technologies, PV4901) in the presence of ATP and serially diluted compound. […] Compound-dependent inhibition of the TR-FRET signal was used to generate a concentration-response curve for IC50 determination.
After 60 min incubation at room temperature, the reaction was stopped by addition of 10 μL of 2×stop solution containing a final concentration of 2 nM anti-pERM antibody and 10 mM EDTA.

The record followed here is patent publication US20230148214A1, “INDAZOLES AND AZAINDAZOLES AS LRRK2 INHIBITORS” (ESCAPE Bio, Inc., priority 2020, published 2023).

T1 sequence (Q5S007 whole entry): as the sequence (Q5S007 whole entry G2019S) above, with S2019G counted along it

By IC50 is commonly meant the concentration that inhibits the measured activity by half. Regarding `COc1n[nH]c2ccc(O[C@H]3CCCc4cc(C#N)c(Br)nc43)cc12` (single isomer, unassigned) [188, enantiomer 2, 2-Bromo-8-[(3-methoxy-1H-indazol-5-yl)oxy]-5,6,7,8-tetrahydroquinoline-3-carbonitrile], the half-inhibitory concentration (IC50) lay within 1000 to 10000 nM at LRRK2 WT and 100 to 1000 nM at LRRK2 G2019S.
In the same order, the values of `COc1n[nH]c2ccc(O[C@H]3CCc4cc(C#N)c(Cl)cc43)cc12` (single isomer, unassigned) [189, enantiomer 1, 6-Chloro-1-[(3-methoxy-1H-indazol-5-yl)oxy]-2,3-dihydro-1H-indene-5-carbonitrile] are 1000 to 10000 nM and 100 to 1000 nM.
Regarding `COc1n[nH]c2ccc(O[C@H]3CCc4cc(C#N)c(Cl)cc43)cc12` (single isomer, unassigned) [189, enantiomer 2, 6-Chloro-1-[(3-methoxy-1H-indazol-5-yl)oxy]-2,3-dihydro-1H-indene-5-carbonitrile], the half-inhibitory concentration (IC50) on LRRK2 WT was 100 to 1000 nM; at LRRK2 G2019S, less than 100 nM.
On to `Cc1cc2[nH]nc(-c3cnco3)c2cc1NC1CCCc2cc(C#N)cnc21` (single isomer, unassigned) [190, enantiomer 1, 8-[[6-Methyl-3-(1,3-oxazol-5-yl)-1H-indazol-5-yl]amino]-5,6,7,8-tetrahydroquinoline-3-carbonitrile], for which the IC50 at LRRK2 WT and at LRRK2 G2019S was less than 100 nM each time.
With `N#Cc1ccc2c(c1)OCC[C@@H]2Nc1ccc2[nH]nc(-c3cnco3)c2c1` (single isomer, unassigned) [191, enantiomer 1, 4-((3-(oxazol-5-yl)-1H-indazol-5-yl)amino)chromane-7-carbonitrile], the concentration for half-maximal inhibition (IC50) is 100 to 1000 nM on LRRK2 WT and less than 100 nM at LRRK2 G2019S.
Taken in the same sequence, the figures for `N#Cc1ccc2c(c1)OCC[C@@H]2Nc1ccc2[nH]nc(-c3cnco3)c2c1` (single isomer, unassigned) [191, enantiomer 2, 4-{[3-(1,3-oxazol-5-yl)-1H-indazol-5-yl]amino}-3,4-dihydro-2H-1-benzopyran-7-carbonitrile] were less than 100 nM and less than 100 nM.
With `N#Cc1ccc2c(c1)OCC[C@@H]2Nc1ccc2[nH]nc(-c3cnoc3)c2c1` (single isomer, unassigned) [192, enantiomer 1, 4-((3-(Isoxazol-4-yl)-1H-indazol-5-yl)amino)chromane-7-carbonitrile], the IC50 at LRRK2 WT and at LRRK2 G2019S was 100 to 1000 nM each time.
Consider `N#Cc1ccc2c(c1)OCC[C@@H]2Nc1ccc2[nH]nc(-c3cnoc3)c2c1` (single isomer, unassigned) [192, enantiomer 2, 4-((3-(Isoxazol-4-yl)-1H-indazol-5-yl)amino)chromane-7-carbonitrile], for which the IC50 at LRRK2 WT and at LRRK2 G2019S was less than 100 nM in each case.
For the molecule `N#Cc1ccc2c(c1)OCC[C@@H]2Nc1ccc2[nH]nc(I)c2c1` (single isomer, unassigned) [193, enantiomer 1, 4-((3-Iodo-1H-indazol-5-yl)amino)chromane-7-carbonitrile], the IC50 was in the range of 1000 to 10000 nM at LRRK2 WT and 100 to 1000 nM on LRRK2 G2019S.
With `N#Cc1ccc2c(c1)OCC[C@@H]2Nc1ccc2[nH]nc(I)c2c1` (single isomer, unassigned) [193, enantiomer 2, 4-((3-Iodo-1H-indazol-5-yl)amino)chromane-7-carbonitrile], the half-inhibitory concentration (IC50) on LRRK2 WT and on LRRK2 G2019S was less than 100 nM throughout.
`N#Cc1cnc2c(c1)OCC[C@@H]2Nc1ccc2[nH]nc(-c3cnco3)c2c1` (single isomer, unassigned) [194, enantiomer 1, 4-((3-(Oxazol-5-yl)-1H-indazol-5-yl)amino)-3,4-dihydro-2H-pyrano[3,2-b]pyridine-7-carbonitrile]: the IC50 on LRRK2 WT and at LRRK2 G2019S was less than 100 nM in each case.
`N#Cc1cnc2c(c1)OCC[C@@H]2Nc1ccc2[nH]nc(-c3cnco3)c2c1` (single isomer, unassigned) [194, enantiomer 2, 4-((3-(Oxazol-5-yl)-1H-indazol-5-yl)amino)-3,4-dihydro-2H-pyrano[3,2-b]pyridine-7-carbonitrile]: the IC50 at LRRK2 WT and at LRRK2 G2019S was 100 to 1000 nM in each case.
In the case of `Cc1n[nH]c2ccc(O[C@H]3CCc4cc(C#N)ccc43)cc12` (single isomer, unassigned) [Example 1, enantiomer 1, 1-((3-Methyl-1H-indazol-5-yl)oxy)-2,3-dihydro-1H-indene-5-carbonitrile], the results for the half-maximal inhibitory concentration (IC50) at LRRK2 WT and on LRRK2 G2019S were 100 to 1000 nM and less than 100 nM, respectively.
As for `Cc1n[nH]c2ccc(O[C@H]3CCc4cc(C#N)ccc43)cc12` (single isomer, unassigned) [Example 1, enantiomer 2, 1-((3-Methyl-1H-indazol-5-yl)oxy)-2,3-dihydro-1H-indene-5-carbonitrile], the half-inhibitory concentration (IC50) was 100 to 1000 nM at LRRK2 WT and less than 100 nM at LRRK2 G2019S.
In the same order, the values of `N#Cc1cnc2c(c1)CCC[C@@H]2Oc1ccc2[nH]nc(-c3cnoc3)c2c1` (single isomer, unassigned) [Example 2, enantiomer 1, 8-((3-(Isoxazol-4-yl)-1H-indazol-5-yl)oxy)-5,6,7,8-tetrahydroquinoline-3-carbonitrile] are less than 100 nM and less than 100 nM.
In the case of `N#Cc1ccc2c(c1)CCC2Oc1ccc2[nH]nc(-c3cnco3)c2c1` (single isomer, unassigned) [Example 3, enantiomer 1, 1-((3-(Oxazol-5-yl)-1H-indazol-5-yl)oxy)-2,3-dihydro-1H-indene-5-carbonitrile], the IC50 at LRRK2 WT and on LRRK2 G2019S was less than 100 nM throughout.
As for `N#Cc1ccc2c(c1)CC[C@@H]2Oc1ccc2[nH]nc(-c3cnn(C(F)F)c3)c2c1` (single isomer, unassigned) [Example 4, enantiomer 1, 1-((3-(1-(Difluoromethyl)-1H-pyrazol-4-yl)-1H-indazol-5-yl)oxy)-2,3-dihydro-1H-indene-5-carbonitrile], the IC50 at LRRK2 WT was 100 to 1000 nM; at LRRK2 G2019S, less than 100 nM.
Turning to `N#Cc1ccc2c(c1)CC[C@@H]2Oc1ccc2[nH]nc(-c3cnoc3)c2c1` (single isomer, unassigned) [Example 5, enantiomer 1, 1-((3-(Isoxazol-4-yl)-1H-indazol-5-yl)oxy)-2,3-dihydro-1H-indene-5-carbonitrile], the concentration for half-maximal inhibition (IC50) at LRRK2 WT and on LRRK2 G2019S was less than 100 nM throughout.
Consider `N#Cc1ccc2c(c1)CCC[C@@H]2Nc1ccc2[nH]nc(-c3cnoc3)c2c1` (single isomer, unassigned) [Example 6, enantiomer 1, 5-((3-(Isoxazol-4-yl)-1H-indazol-5-yl)amino)-5,6,7,8-tetrahydronaphthalene-2-carbonitrile], for which the IC50 on LRRK2 WT and on LRRK2 G2019S was less than 100 nM in each case.
For `N#Cc1ccc2c(c1)CCC[C@@H]2Nc1ccc2[nH]nc(-c3cnoc3)c2c1` (single isomer, unassigned) [Example 6, enantiomer 2, 5-((3-(Isoxazol-4-yl)-1H-indazol-5-yl)amino)-5,6,7,8-tetrahydronaphthalene-2-carbonitrile], the IC50 on LRRK2 WT was 100 to 1000 nM; on LRRK2 G2019S it was less than 100 nM.
With `N#Cc1cnc2c(c1)CCC[C@@H]2Nc1ccc2[nH]nc(-c3cnoc3)c2c1` (single isomer, unassigned) [Example 7, enantiomer 1, 8-((3-(Isoxazol-4-yl)-1H-indazol-5-yl)amino)-5,6,7,8-tetrahydroquinoline-3-carbonitrile], the values for the IC50 at LRRK2 WT and on LRRK2 G2019S were 1000 to 10000 nM and 100 to 1000 nM, respectively.
Consider `N#Cc1cnc2c(c1)CCC[C@@H]2Nc1ccc2[nH]nc(-c3cnoc3)c2c1` (single isomer, unassigned) [Example 7, enantiomer 2, 8-((3-(Isoxazol-4-yl)-1H-indazol-5-yl)amino)-5,6,7,8-tetrahydroquinoline-3-carbonitrile], for which the half-maximal inhibitory concentration (IC50) on LRRK2 WT and at LRRK2 G2019S was less than 100 nM each time.
For the molecule `N#Cc1ccc2c(c1)CC[C@@H]2Nc1ccc2[nH]nc(-c3cnoc3)c2c1` (single isomer, unassigned) [Example 8, enantiomer 1, 1-((3-(Isoxazol-4-yl)-1H-indazol-5-yl)amino)-2,3-dihydro-1H-indene-5-carbonitrile], the half-inhibitory concentration (IC50) at LRRK2 WT and on LRRK2 G2019S was less than 100 nM throughout.
Regarding `N#Cc1ccc2c(c1)CC[C@@H]2Nc1ccc2[nH]nc(-c3cnco3)c2c1` (single isomer, unassigned) [Example 9, enantiomer 1, 1-((3-(Oxazol-5-yl)-1H-indazol-5-yl)amino)-2,3-dihydro-1H-indene-5-carbonitrile], the concentration for half-maximal inhibition (IC50) at LRRK2 WT and at LRRK2 G2019S was less than 100 nM each time.
Take `N#Cc1ccc2c(c1)CC[C@@H]2Nc1ccc2[nH]nc(-c3ccoc3)c2c1` (single isomer, unassigned) [Example 11, enantiomer 1, 1-((3-(Furan-3-yl)-1H-indazol-5-yl)amino)-2,3-dihydro-1H-indene-5-carbonitrile]: the 50% inhibitory concentration (IC50) on LRRK2 WT is 100 to 1000 nM; on LRRK2 G2019S, less than 100 nM.
Taken in the same sequence, the figures for `N#Cc1ccc2c(c1)CC[C@@H]2Nc1ccc2[nH]nc(-c3cnn(C(F)F)c3)c2c1` (single isomer, unassigned) [Example 12, enantiomer 1, 1-((3-(1-(Difluoromethyl)-1H-pyrazol-4-yl)-1H-indazol-5-yl)amino)-2,3-dihydro-1H-indene-5-carbonitrile] were less than 100 nM and less than 100 nM.
